From EP1801112A1, “Bicyclic pyrimidines and bicyclic 3,4-dihydropyrimidines as inhibitors of cellular proliferation” (Warner-Lambert Company LLC, priority 1998, dated 1999)
Read-outs that look alike come from different tables or passages of the source.

Assays:
cdk4/D = cdk4/D (Homo sapiens, UniProt P11802); assay: Cyclin-Dependent Kinase 4 (cdk4) Assay; type: biochemical
Experimental: A typical assay, for instance, measures inhibitory activity against the cyclin D dependent kinase 4 enzyme (cdk4/D). […] The cdk4 assay was carried out as follows.
Cyclin-Dependent Kinase 4 (cdk4) Assay
Enzyme assays for IC50 determinations (Tables 1 and 2) and kinetic evaluation were performed in 96 well filter plates (Millipore MADVN6550). The total volume was 0.1 mL containing a final concentration of 20 mM TRIS (tris[hydroxymethyl]aminomethane), at pH 7.4, 50 mM NaCl, 1 mM dithiothreitol, 10 mM MgCl2, 25 µM ATP containing 0.25 µCi of [^32P]ATP, 20 ng of cdk4, 1 µg of retinoblastoma, and appropriate dilutions of a compound of the present invention. All components except the ATP were added to the wells, and the plate was placed on a plate mixer for 2 minutes. The reaction was started by adding [^32P]ATP and the plate was incubated at 25°C for 15 minutes. The reaction was terminated by addition of 0.1 mL of 20% trichloroacetic acid (TCA). The plate was kept at 4°C for at least 1 hour to allow the substrate to precipitate. The wells were then washed five times with 0.2 mL of 10% TCA and ^32P incorporation was determined with a beta plate counter (Wallac Inc., Gaithersburg, MD).

[1] = biological target: T1, FGF-1 (flg) receptor tyrosine kinase (Homo sapiens, UniProt P11362); assay: FGF Receptor Tyrosine Kinase Assay; type: biochemical; settings: glutamate-tyrosine co-polymer substrate, 50 µM ATP
T1 construct: amplify a fragment of DNA that codes for the intracellular tyrosine kinase domain; made in house; host or cells: SF9 insect cells (baculovirus); crude cell lysate used
T1 sequence (P11362 478-767 limits assumed): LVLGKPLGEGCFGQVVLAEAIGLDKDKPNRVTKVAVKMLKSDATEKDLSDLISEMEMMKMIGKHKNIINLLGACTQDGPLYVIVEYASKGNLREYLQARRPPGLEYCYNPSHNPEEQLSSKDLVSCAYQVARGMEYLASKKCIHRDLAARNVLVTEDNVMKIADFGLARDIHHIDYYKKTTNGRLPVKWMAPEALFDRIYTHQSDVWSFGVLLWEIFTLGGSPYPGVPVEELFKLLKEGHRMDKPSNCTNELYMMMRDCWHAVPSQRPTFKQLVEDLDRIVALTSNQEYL
Experimental: PDGF and FGF Receptor Tyrosine Kinase Assays
PCR primers were designed to amplify a fragment of DNA that codes for the intracellular tyrosine kinase domain. The fragment was inserted into a baculovirus vector, cotransfected with AcMNPV DNA, and the recombinant virus isolated. SF9 insect cells were infected with the virus to overexpress the protein, and the cell lysate was used for the assay. Assays were performed in 96-well plates (100 µL/incubation/well), and conditions were optimized to measure the incorporation of ^32P from γ^32P-ATP into a glutamate-tyrosine co-polymer substrate. Briefly, to each well was added 82.5 µL of incubation buffer containing 25 mM Hepes (pH 7.0), 150 mM NaCl, 0.1% Triton X-100, 0.2 mM PMSF, 0.2 mM Na3VO4, 10 mM MnCl2, and 750 µg/mL of Poly (4:1) glutamate-tyrosine followed by 2.5 µL of inhibitor and 5 µL of enzyme lysate (7.5 µg/µL FGF-TK or 6.0 µg/µL PDGF-TK) to initiate the reaction. […] The reaction was terminated by the addition of 100 µL of 30% trichloroacetic acid (TCA) containing 20 mM sodium pyrophosphate and precipitation of material onto glass fiber mats (Wallac). […] Nonspecific activity was defined as radioactivity retained on the filters following incubation of samples with buffer alone (no enzyme). Specific enzymatic activity (enzyme plus buffer) was defined as total activity minus nonspecific activity. […]

c-Src = biological target: T2, c-Src (Homo sapiens, UniProt P12931); assay: c-Src protein kinase assay; type: biochemical; settings: poly GluTyr substrate, 5 µM ATP
T2 construct: made in house; host or cells: baculovirus infected insect cells
T2 sequence (P12931 whole entry): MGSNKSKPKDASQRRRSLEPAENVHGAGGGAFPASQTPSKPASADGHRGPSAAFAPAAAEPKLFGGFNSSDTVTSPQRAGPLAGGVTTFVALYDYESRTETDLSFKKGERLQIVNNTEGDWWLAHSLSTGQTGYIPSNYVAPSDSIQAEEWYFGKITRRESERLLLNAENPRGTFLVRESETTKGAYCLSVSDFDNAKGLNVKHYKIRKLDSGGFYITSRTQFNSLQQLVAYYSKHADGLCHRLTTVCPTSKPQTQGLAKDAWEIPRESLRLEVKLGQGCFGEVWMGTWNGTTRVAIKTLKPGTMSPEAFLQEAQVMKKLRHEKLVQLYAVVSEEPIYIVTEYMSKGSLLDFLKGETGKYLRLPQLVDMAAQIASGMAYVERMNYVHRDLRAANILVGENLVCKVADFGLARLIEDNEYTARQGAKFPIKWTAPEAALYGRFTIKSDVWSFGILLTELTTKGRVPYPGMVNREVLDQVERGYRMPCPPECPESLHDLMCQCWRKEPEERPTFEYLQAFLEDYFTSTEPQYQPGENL
Experimental: The assay was carried out as follows: c-Src kinase was purified from baculovirus infected insect cell lysates using an antipeptide monoclonal antibody directed against the N-terminal amino acids (amino acids 2-17) of c-Src. The antibody, covalently linked to 0.65 µm latex beads, was added to a suspension of insect cell lysis buffer comprised of 150 mM NaCl, 50 mM Tris pH 7.5, 1 mM DTT, 1% NP-40, 2 mM EGTA, 1 mM sodium vanadate, 1 mM PMSF, 1 µg/mL each of leupeptin, pepstatin, and aprotinin. Insect cell lysate containing c-Src protein was incubated with these beads for 3 to 4 hours at 4°C with rotation. At the end of the lysate incubation, the beads were rinsed three times in lysis buffer, resuspended in lysis buffer containing 10% glycerol, and frozen. These latex beads were thawed, rinsed three times in assay buffer (40 mM Tris, pH 7.5, […]) and suspended in the same buffer. In a Millipore 96-well plate with a 0.65 µm polyvinylidine membrane bottom were added the reaction components: 10 µL c-Src beads, 10 µL of 2.5 mg/mL poly GluTyr substrate, 5 µM ATP containing 0.2 µCi labeled ^32P-ATP, 5 µL DMSO containing inhibitors or as a solvent control, and buffer to make the final volume 125 µL. The reaction was started at room temperature by addition of the ATP and quenched 10 minutes later by the addition of 125 µL of 30% TCA, 0.1 M sodium pyrophosphate for 5 minutes on ice. […] The filters were then punched, counted in a liquid scintillation counter, and the data examined for inhibitory activity in comparison to a known inhibitor such as erbstatin. […]

cdk2/cyclinA = cdk2/cyclinA (Homo sapiens, UniProt P24941); assay: Cyclin-Dependent Kinase Assay cdk2/cyclinA; type: biochemical
Experimental: (§1) Cyclin-Dependent Kinase Assays (cdk2/cyclinE, cdk2/cyclinA, cdc2/cyclinB)
(§2) All components except the ATP were added to the wells, and the plate was placed on a plate mixer for 2 minutes. The reaction was begun by addition of [^32P]ATP, and the plate was incubated at 25°C for 15 minutes. The reaction was terminated by addition of 0.1 mL of 20% TCA. The plate was kept at 4°C for at least 1 hour to allow the substrate to precipitate. The wells were then washed five times with 0.2 mL of 10% TCA and ^32P incorporation determined with a beta plate counter (Wallac Inc., Gaithersburg, MD).

cdc2/cyclinB = cdc2/cyclinB (Homo sapiens, UniProt P06493); assay: Cyclin-Dependent Kinase Assay cdc2/cyclinB; type: biochemical
Chain of cdc2/cyclinB (P06493 whole entry): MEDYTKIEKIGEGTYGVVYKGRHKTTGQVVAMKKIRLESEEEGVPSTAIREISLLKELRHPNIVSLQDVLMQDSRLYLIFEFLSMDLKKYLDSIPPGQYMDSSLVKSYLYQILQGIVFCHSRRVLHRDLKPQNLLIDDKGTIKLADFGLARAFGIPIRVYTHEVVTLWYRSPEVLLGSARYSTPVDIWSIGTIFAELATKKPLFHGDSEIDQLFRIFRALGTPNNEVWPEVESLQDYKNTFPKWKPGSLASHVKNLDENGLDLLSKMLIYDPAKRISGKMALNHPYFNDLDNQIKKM
Chain of cdc2/cyclinB (P14635 whole entry, further chain): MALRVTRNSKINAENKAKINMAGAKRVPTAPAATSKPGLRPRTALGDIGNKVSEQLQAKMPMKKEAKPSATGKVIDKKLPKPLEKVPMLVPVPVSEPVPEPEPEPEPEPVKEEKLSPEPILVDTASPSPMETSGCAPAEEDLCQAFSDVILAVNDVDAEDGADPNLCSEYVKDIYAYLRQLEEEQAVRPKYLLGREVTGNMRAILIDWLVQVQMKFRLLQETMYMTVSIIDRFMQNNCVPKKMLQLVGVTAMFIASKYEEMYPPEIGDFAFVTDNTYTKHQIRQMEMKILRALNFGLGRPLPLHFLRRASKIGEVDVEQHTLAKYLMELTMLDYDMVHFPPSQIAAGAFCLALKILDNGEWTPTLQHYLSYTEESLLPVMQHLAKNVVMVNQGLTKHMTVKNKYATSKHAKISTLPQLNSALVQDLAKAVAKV
Experimental: as §1, §2

cdk2/cyclinE = cdk2/cyclinE (Homo sapiens, UniProt P24941); assay: Cyclin-Dependent Kinase Assay cdk2/cyclinE; type: biochemical
Experimental: as §1, §2

[2] = system: human umbilical vein endothelial cells; assay: Human Umbilical Vein Endothelial Cell (HUVEC) Proliferation Assay; type: cell-based; settings: 96 h, four days incubation, Sulphorhodamine B staining
Experimental: The compounds of Formula I are useful for treating cell proliferative disorders concerning angiogenesis and have been evaluated in a human umbilical vein endothelial cell in vitro assay. The assay described below is used to determine the anti-proliferative effects of the invention compounds on human umbilical vein endothelial cells, and the results are shown in Table 7.
Human Umbilical Vein Endothelial Cell (HUVEC) Proliferation Assay
Ninety-six well tissue culture plates are seeded with 100 µL of cells in all wells of rows A->G with row H remaining empty as a blank. HUVEC (Clonetics, San Diego, CA) are grown in endothelial growth medium (EGM media, Clonetics), containing 2% fetal bovine serum. The cell seed density for HUVEC cells is 20,000 per mL. C6 cells (ATCC Cat. No. CCL-107) are seeded at 6000 per mL in F10 medium (nutrient mixture Hemes) supplemented with 15% horse serum, 2.5% fetal bovine serum, and 6.0 mL 200 mM Glutamine per 600 mL medium. A90 cells (Suny, Buffalo, NY) are also seeded at 6000 per mL, but they are grown in RPMI 1640 (Roswell Park Memorial Institute) plus 10% fetal bovine serum. Unless noted otherwise, tissue culture media and components are from GIBCO. The cells are allowed to incubate at 37°C, 5% CO2, and 100% relative humidity for 16-24 hours.
Invention compounds are prepared by dissolving them in DMSO at a concentration of 5 mM, followed by dilution to 50 µM in EGM media. One hundred microliters of the compounds are applied to duplicate wells in column 1 of the previously prepared cell plates. Column 1 row H receives 100 µL of EGM media. The compounds in column 1 are diluted across the plates using serial twofold dilutions.
The plates are incubated as above for an additional four days before being stained with Sulphorhodamine B. Staining is performed as follows: The media is removed from the plates, and the cells are fixed using 10% trichloroacetic acid for 30 minutes at 4°C. Following fixation, the plates are washed five times with distilled water after which 100 µL of Sulphorhodamine B is added to each well. Sulphorhodamine B is dissolved in 1% acetic acid to a concentration of .075%. Following staining, excess stain is removed from the wells, and the plates are washed four times with 1% acetic acid. The plates are allowed to air dry before the bound dye is solubilized in 100 µL of 10 mM unbuffered TRIS base. Absorbance is measured on a 96 well plate reader at […] using a reference filter wavelength of 630 nm. […] Sulphorhodamine B and TRIS are from Sigma Chemical Company. Acetic acid and trichloroacetic acid are from Mallinckrodt AR.

[3] = 25 µM ATP, retinoblastoma substrate, read-out: IC50 (µM) cdk4/D

Chain of cdk4/D (P11802 whole entry): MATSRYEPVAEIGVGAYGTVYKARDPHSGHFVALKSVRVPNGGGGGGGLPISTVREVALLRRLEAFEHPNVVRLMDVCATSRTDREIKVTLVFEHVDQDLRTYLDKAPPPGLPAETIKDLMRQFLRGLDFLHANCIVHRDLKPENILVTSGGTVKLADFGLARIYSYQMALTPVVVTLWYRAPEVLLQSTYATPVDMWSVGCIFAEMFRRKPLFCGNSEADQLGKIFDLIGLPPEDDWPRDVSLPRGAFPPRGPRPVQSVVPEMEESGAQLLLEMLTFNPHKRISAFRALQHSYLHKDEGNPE
Chain of cdk4/D (P24385 whole entry, further chain): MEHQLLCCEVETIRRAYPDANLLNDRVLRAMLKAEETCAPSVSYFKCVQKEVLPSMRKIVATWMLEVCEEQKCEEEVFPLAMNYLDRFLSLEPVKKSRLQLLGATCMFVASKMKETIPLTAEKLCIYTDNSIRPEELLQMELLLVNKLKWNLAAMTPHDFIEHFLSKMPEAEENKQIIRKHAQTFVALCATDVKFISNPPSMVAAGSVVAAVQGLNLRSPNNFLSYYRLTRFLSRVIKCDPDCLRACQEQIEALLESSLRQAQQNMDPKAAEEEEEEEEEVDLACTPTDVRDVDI

`O=C1NCc2cnc(Nc3ccc(N4CCCCC4)cc3)nc2N1C1CCCC1` [Example 10, 1-Cyclopentyl-7-[4-(piperidin-1-yl)phenylamino]-3,4-dihydropyrimido[4,5-d]pyrimidin-2(1H)-one] gave an IC50 (cdk4/D; [3]) of 1.55 µM, an IC50 [1] of 0.64 µM and an IC50 (c-Src) greater than 50 µM.
For `O=C1NCc2cnc(Nc3ccc(-n4cccc4)cc3)nc2N1C1CCCC1` [Example 14, 1-Cyclopentyl-7-[4-(pyrrol-1-yl)phenylamino]-3,4-dihydropyrimido[4,5-d]pyrimidin-2(1H)-one], the IC50 (cdk4/D) was 17.8 µM, the IC50 (cdk2/cyclinA) was 5.1 µM and the IC50 (cdc2/cyclinB) was greater than 20 µM. It also gave an IC50 (c-Src) greater than 50 µM.
`O=C1NCc2cnc(Nc3ccc(N4CCC(O)CC4)cc3)nc2N1C1CCCC1` [Example 15, 1-Cyclopentyl-7-[4-(4-hydroxypiperidin-1-yl)phenylamino]-3,4-dihydropyrimido[4,5-d]pyrimidin-2(1H)-one] showed an IC50 (cdk4/D; [3]) of 0.7 µM, an IC50 (cdk2/cyclinE; retinoblastoma substrate, read-out: IC50 (µM) cdk2/E) of 2.2 µM and an IC50 (cdk2/cyclinA; retinoblastoma substrate, read-out: IC50 (µM) cdk2/A) of 0.6 µM. It also gave an IC50 (cdc2/cyclinB; retinoblastoma substrate, read-out: IC50 (µM) cdkl/B) of 16.8 µM, an IC50 [1] of 0.05 to 0.5 µM and an IC50 (c-Src) of 2.4 µM.
`O=C1NCc2cnc(Nc3ccc(N4CCCCC4CO)cc3)nc2N1C1CCCC1` (stereo not shown) [Example 19, 1-Cyclopentyl-7-[4-(2-hydroxymethylpiperidin-1-yl)phenylamino]-3,4-dihydro-pyrimido[4,5-d]pyrimidin-2(1H)-one] gave an IC50 (cdk4/D) of 0.5 µM, an IC50 [1] of 0.05 to 0.5 µM and an IC50 (c-Src) of 4.42 µM.
`CC(C)N1C(=O)NCc2cnc(Nc3ccc(N4CCN(C)CC4)cc3)nc21` [Example 22, 1-Isopropyl-7-[4-(4-methylpiperazin-1-yl)phenylamino]-3,4-dihydropyrimido[4,5-d]pyrimidin-2(1H)-one] was tested, and the IC50 (cdk4/D) was 0.34 µM, the IC50 (cdk2/cyclinA) was 9.31 µM and the IC50 (c-Src) was 1.51 µM.
`CC(C)n1c(=O)ncc2cnc(Nc3ccc(N4CCN(C)CC4)cc3)nc21` [Example 40, 1-Isopropyl-7-[4-(4-methylpiperazin-1-yl)phenylamino]pyrimido[4,5-d]pyrimidin-2(1H)-one] gave an IC50 (cdk2/cyclinE) of 16.5 µM, an IC50 (cdk2/cyclinA) of 4.51 µM and an IC50 [1] of 1.13 µM. For the same compound, the IC50 (c-Src) was 4.3 µM.
In the case of `CCN(CC)CCCCNc1ncc2c(n1)NC(=O)N(c1cc(OC)cc(OC)c1)C2` [Example 52, 7-(4-Diethylamino-butylamino)-3-(3,5-dimethoxy-phenyl)-3,4-dihydropyrimido[4,5-d]pyrimidin-2(1H)-one], the IC50 [2] is reported as 6.65 µM.
`COc1cc(OC)cc(N2Cc3cnc(NCCNCc4ccncc4)nc3NC2=O)c1` [Example 54, 3-(3,5-Dimethoxy-phenyl)-7-{2-[(pyridin-4-ylmethyl)-amino]-ethylamino}-3,4-dihydro-pyrimido[4,5-d]pyrimidin-2(1H)-one] gave an IC50 [2] greater than 25 µM.
`COc1cc(OC)cc(N2Cc3cnc(NCCCN4CCN(C)CC4)nc3NC2=O)c1` [Example 54a, 3-(3,5-Dimethoxy-phenyl)-7-[3-(4-methyl-piperazin-1-yl)-propylamino]-3,4-dihydro-1H-pyrimido[4,5-d]pyrimidin-2(1H)-one] gave an IC50 [2] of 5.99 µM.
`COc1cc(OC)cc(N2Cc3cnc(NCCCCN4CCN(C)CC4)nc3NC2=O)c1` [Example 54b, 3-(3,5-Dimethoxy-phenyl)-7-[4-(4-methyl-piperazin-1-yl)-butylamino]-3,4-dihydro-pyrimido[4,5-d]pyrimidin-2(1H)-one] showed an IC50 [2] of 4.96 µM.
`COc1cc(OC)cc(N2Cc3cnc(NCCCCCN4CCN(C)CC4)nc3NC2=O)c1` [Example 54c, 3-(3,5-Dimethoxy-phenyl)-7-[5-(4-methyl-piperazin-1-yl)-pentylamino]-3,4-dihydro-pyrimido[4,5-d]pyrimidin-2(1H)-one] was tested, and the IC50 [2] was 5.78 µM.
Compound `CCN(CC)CCCNc1ncc2c(n1)NC(=O)N(c1cc(OC)cc(OC)c1)C2` [Example 55, 7-(3-Diethylamino-propylamino)-3-(3,5-dimethoxy-phenyl)-3,4-dihydropyrimido[4,5-d]pyrimidin-2(1H)-one] has an IC50 [2] greater than 25 µM.
`CCN1C(=O)N(c2cc(OC)cc(OC)c2)Cc2cnc(NCCNCc3ccncc3)nc21` [Example 56, 3-(3,5-Dimethoxy-phenyl)-1-ethyl-7-{2-[(pyridin-4-ylmethyl)-amino]-ethylamino}-3,4-dihydro-pyrimido[4,5-d]pyrimidin-2(1H)-one] showed an IC50 [2] of 1.93 µM.
`CCN1C(=O)N(c2cc(OC)cc(OC)c2)Cc2cnc(NCCCN3CCN(C)CC3)nc21` [Example 57, 3-(3,5-Dimethoxy-phenyl)-1-ethyl-7-[3-(4-methyl-piperazin-1-yl)-propylamino]-3,4-dihydro-pyrimido[4,5-d]pyrimidin-2(1H)-one] showed an IC50 [2] of 0.152 µM.
